Source: article PMC12749626, “Expediting hit-to-lead progression in drug discovery through reaction prediction and multi-dimensional optimization” (Nature Communications, 2025)

Legend:
ADENOSINE A3 REC. = ADENOSINE A3 REC. (Homo sapiens, UniProt P0DMS8); assay: biochemical; settings: read-out: ADENOSINE A3 REC. percent activity or inhibition compared to the assay reference
PHOSPHODIESTERASE 4D2 = PHOSPHODIESTERASE 4D2 (Homo sapiens, UniProt Q08499); assay: biochemical; settings: read-out: PHOSPHODIESTERASE 4D2 percent activity or inhibition compared to the assay reference
Chain of UniProt Q08499 (Q08499 303-809): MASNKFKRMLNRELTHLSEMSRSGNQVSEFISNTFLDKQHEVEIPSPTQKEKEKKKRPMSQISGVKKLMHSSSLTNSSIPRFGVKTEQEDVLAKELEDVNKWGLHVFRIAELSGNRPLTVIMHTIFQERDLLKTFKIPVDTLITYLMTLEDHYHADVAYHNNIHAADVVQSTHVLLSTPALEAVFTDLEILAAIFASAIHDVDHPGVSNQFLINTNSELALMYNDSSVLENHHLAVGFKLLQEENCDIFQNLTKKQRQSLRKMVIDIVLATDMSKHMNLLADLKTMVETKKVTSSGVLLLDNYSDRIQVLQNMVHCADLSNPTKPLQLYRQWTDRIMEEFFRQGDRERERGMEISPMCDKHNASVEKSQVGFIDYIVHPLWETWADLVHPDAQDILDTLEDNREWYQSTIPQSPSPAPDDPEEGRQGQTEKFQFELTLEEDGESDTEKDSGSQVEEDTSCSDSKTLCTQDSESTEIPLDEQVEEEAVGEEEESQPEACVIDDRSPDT

CYCLO OXYGENASE 2 = CYCLO OXYGENASE 2 (Homo sapiens, UniProt P35354); assay: biochemical; settings: read-out: CYCLO OXYGENASE 2 percent activity or inhibition compared to the assay reference
Chain of CYCLO OXYGENASE 2 (P35354 18-604): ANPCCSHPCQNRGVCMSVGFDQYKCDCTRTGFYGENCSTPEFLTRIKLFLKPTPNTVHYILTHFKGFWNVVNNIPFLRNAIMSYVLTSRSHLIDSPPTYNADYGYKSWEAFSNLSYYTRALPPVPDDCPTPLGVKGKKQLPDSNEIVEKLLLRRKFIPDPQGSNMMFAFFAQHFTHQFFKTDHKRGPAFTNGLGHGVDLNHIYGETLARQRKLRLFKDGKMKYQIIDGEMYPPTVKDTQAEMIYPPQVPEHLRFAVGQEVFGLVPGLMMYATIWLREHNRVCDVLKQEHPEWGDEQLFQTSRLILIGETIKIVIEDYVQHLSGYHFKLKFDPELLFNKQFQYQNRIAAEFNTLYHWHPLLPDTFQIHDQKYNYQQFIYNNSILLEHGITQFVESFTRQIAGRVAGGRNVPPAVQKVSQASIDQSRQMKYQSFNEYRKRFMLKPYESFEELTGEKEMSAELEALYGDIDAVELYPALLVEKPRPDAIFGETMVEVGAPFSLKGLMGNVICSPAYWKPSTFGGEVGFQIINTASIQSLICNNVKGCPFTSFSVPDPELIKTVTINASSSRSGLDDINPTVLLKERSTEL

ABCB1 (MDR1, human P-gp) = ABCB1 (MDR1, human P-gp) (Homo sapiens, UniProt P08183); assay: P-glycoprotein (P-gp) assay in LLC-PK1 cells transfected with ABCB1; settings: for Papp A→B: human, LLC-PK1
5HT2B = 5HT2B (Homo sapiens, UniProt P41595); assay: biochemical; settings: read-out: 5HT2B percent activity or inhibition compared to the assay reference
Chain of 5HT2B (P41595 whole entry): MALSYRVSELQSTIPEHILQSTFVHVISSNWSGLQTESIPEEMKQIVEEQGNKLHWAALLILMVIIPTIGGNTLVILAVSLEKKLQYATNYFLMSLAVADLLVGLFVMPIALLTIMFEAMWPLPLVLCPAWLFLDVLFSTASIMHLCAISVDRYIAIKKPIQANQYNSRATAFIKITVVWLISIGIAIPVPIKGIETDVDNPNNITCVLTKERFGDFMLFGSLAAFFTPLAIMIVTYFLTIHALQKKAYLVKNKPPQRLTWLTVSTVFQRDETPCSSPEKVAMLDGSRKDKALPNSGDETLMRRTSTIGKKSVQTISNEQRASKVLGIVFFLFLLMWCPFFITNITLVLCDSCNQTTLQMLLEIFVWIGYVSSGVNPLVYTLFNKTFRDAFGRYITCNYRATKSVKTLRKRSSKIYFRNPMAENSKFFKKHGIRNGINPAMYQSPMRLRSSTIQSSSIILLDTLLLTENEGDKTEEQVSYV

[…]. M2 = […]. M2 (Homo sapiens, UniProt P08172); assay: biochemical; settings: read-out: […]. M2 percent activity or inhibition compared to the assay reference
Chain of […]. M2 (P08172 whole entry): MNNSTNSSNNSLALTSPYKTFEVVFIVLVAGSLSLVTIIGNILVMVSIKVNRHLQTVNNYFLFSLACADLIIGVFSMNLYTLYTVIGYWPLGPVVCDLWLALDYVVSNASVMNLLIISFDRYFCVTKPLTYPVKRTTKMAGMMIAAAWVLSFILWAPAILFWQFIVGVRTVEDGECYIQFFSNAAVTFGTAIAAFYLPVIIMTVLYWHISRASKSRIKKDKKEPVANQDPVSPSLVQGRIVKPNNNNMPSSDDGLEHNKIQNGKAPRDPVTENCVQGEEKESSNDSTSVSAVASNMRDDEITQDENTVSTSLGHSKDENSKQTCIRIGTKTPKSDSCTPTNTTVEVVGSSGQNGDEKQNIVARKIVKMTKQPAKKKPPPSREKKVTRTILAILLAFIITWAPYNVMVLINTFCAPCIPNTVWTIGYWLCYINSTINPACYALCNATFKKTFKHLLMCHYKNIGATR

ESTROGEN REC. α = ESTROGEN REC. α (Homo sapiens, UniProt P03372); assay: biochemical; settings: read-out: ESTROGEN REC. α percent activity or inhibition compared to the assay reference
β2-ADRENOCEPTOR = β2-ADRENOCEPTOR (Homo sapiens, UniProt P07550); assay: biochemical; settings: read-out: β2-ADRENOCEPTOR percent activity or inhibition compared to the assay reference
CDK2 = CDK2 (Homo sapiens, UniProt P24941); assay: biochemical; settings: read-out: CDK2 percent activity or inhibition compared to the assay reference
κ OPIOID REC. = κ OPIOID REC. (Homo sapiens, UniProt P41145); assay: biochemical; settings: read-out: κ OPIOID REC. percent activity or inhibition compared to the assay reference
ACETYLCHOLINESTERASE = ACETYLCHOLINESTERASE (Homo sapiens, UniProt P22303); assay: biochemical; settings: read-out: ACETYLCHOLINESTERASE percent activity or inhibition compared to the assay reference
DOPAMINE D2 REC. (short) = DOPAMINE D2 REC. (short) (Homo sapiens, UniProt P14416); assay: biochemical; settings: read-out: DOPAMINE D2 REC. (short) percent activity or inhibition compared to the assay reference
[…]. M1 = […]. M1 (Homo sapiens, UniProt P11229); assay: biochemical; settings: read-out: […]. M1 percent activity or inhibition compared to the assay reference
[1] = Parallel Artificial Membrane Permeability (PAMPA); settings: for Papp at 18 h, 150 µM: PAMPA, pH 6
NORE[…]. = NORE[…]. (Homo sapiens, UniProt P23975); assay: biochemical; settings: read-out: NORE[…]. percent activity or inhibition compared to the assay reference
GSK-3A = GSK-3A (Homo sapiens, UniProt P49840); assay: biochemical; settings: read-out: GSK-3A percent activity or inhibition compared to the assay reference
C[…]. CB1 = C[…]. CB1 (Homo sapiens, UniProt P21554); assay: biochemical; settings: read-out: C[…]. CB1 percent activity or inhibition compared to the assay reference
Chain of C[…]. CB1 (P21554 whole entry): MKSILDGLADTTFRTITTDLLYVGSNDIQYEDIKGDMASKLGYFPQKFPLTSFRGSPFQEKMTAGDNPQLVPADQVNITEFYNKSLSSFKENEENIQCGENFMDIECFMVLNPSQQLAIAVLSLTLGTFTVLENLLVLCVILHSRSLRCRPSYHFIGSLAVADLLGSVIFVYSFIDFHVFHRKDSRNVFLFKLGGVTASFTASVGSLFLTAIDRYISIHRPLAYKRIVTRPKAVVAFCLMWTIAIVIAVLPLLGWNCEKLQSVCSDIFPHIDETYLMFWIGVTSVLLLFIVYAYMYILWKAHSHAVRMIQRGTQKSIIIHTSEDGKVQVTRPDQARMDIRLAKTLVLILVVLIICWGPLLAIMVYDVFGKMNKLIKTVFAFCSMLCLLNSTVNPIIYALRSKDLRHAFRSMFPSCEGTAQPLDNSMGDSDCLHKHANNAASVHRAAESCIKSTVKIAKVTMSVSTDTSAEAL

HISTAMINE H2 REC. = HISTAMINE H2 REC. (Homo sapiens, UniProt P25021); assay: biochemical; settings: read-out: HISTAMINE H2 REC. percent activity or inhibition compared to the assay reference
A[…]. ENZ. = A[…]. ENZ. (Homo sapiens, UniProt P12821); assay: biochemical; settings: read-out: A[…]. ENZ. percent activity or inhibition compared to the assay reference
Chain of A[…]. ENZ. (P12821 30-1306): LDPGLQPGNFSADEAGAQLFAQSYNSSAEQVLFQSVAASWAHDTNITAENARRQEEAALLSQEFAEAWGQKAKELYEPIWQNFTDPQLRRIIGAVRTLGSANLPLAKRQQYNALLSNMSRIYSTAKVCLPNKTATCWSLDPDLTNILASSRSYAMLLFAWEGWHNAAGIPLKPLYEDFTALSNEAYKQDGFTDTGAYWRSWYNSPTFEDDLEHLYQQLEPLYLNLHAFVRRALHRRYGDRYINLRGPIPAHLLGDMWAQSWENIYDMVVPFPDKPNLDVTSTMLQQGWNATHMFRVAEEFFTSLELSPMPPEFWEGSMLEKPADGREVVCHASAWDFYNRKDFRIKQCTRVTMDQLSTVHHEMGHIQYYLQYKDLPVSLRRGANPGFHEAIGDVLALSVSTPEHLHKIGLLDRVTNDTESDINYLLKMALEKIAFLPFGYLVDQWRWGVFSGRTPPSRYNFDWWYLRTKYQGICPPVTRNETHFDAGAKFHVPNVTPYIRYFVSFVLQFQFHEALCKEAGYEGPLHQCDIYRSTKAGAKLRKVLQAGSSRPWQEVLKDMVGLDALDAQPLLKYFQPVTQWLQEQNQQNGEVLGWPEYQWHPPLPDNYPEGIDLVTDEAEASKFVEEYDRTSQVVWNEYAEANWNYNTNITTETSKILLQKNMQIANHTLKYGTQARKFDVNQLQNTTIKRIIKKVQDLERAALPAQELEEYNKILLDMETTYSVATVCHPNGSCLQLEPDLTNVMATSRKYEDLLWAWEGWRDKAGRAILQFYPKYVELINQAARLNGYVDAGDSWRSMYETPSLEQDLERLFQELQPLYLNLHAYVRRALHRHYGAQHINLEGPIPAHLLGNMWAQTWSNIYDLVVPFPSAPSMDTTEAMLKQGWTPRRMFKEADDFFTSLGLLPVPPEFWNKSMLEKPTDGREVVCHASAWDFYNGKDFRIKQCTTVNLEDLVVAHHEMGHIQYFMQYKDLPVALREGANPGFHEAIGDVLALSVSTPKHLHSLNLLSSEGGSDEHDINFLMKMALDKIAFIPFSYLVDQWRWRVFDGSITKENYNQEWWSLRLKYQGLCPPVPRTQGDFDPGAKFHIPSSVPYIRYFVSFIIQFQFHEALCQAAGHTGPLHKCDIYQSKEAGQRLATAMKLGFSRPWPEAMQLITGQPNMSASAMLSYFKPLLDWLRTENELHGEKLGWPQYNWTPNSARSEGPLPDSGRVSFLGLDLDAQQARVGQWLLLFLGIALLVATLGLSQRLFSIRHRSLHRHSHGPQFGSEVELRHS

HISTAMINE H3 REC. = HISTAMINE H3 REC. (Homo sapiens, UniProt Q9Y5N1); assay: biochemical; settings: read-out: HISTAMINE H3 REC. percent activity or inhibition compared to the assay reference
PPARγ = PPARγ (Homo sapiens, UniProt P37231); assay: biochemical; settings: read-out: PPARγ percent activity or inhibition compared to the assay reference
α1A-ADRENOCEPTOR = α1A-ADRENOCEPTOR (Homo sapiens, UniProt P35348); assay: biochemical; settings: read-out: α1A-ADRENOCEPTOR percent activity or inhibition compared to the assay reference
ANGIOTENSIN II REC. 1 = ANGIOTENSIN II REC. 1 (Homo sapiens, UniProt P30556); assay: biochemical; settings: read-out: ANGIOTENSIN II REC. 1 percent activity or inhibition compared to the assay reference
Chain of ANGIOTENSIN II REC. 1 (P30556 whole entry): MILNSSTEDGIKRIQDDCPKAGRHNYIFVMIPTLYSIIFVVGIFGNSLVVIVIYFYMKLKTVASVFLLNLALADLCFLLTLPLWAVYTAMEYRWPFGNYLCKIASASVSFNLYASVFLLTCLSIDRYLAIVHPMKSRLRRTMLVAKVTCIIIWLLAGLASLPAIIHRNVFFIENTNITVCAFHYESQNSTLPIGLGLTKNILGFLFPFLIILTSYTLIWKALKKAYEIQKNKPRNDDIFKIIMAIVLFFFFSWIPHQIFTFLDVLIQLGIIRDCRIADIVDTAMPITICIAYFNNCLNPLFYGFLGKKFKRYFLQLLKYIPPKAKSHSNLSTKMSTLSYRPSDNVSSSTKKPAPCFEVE

SEROTONIN TRANSPORTER = SEROTONIN TRANSPORTER (Homo sapiens, UniProt P31645); assay: biochemical; settings: read-out: SEROTONIN TRANSPORTER percent activity or inhibition compared to the assay reference
PROSTAGLANDIN F REC. = PROSTAGLANDIN F REC. (Homo sapiens, UniProt P43088); assay: biochemical; settings: read-out: PROSTAGLANDIN F REC. percent activity or inhibition compared to the assay reference
Chain of UniProt P43088 (P43088 whole entry): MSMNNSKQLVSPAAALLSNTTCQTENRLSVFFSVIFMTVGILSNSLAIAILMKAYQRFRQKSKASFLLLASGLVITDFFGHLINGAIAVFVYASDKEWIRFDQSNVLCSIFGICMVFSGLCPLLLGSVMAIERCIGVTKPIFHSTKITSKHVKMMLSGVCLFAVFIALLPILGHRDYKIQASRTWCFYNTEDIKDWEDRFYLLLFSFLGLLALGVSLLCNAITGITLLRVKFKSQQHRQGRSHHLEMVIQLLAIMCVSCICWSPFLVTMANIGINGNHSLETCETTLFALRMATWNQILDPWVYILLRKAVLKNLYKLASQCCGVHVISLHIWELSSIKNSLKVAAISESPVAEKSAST

GLYCINE REC. = settings: 10 uM; n=2
GABA-A = settings: 10 uM; n=2
PCP NMDA REC. = settings: 10 uM; n=2
GABA-A (BENZ[…]) = settings: 10 uM; n=2

Chain of ADENOSINE A3 REC. (P0DMS8 whole entry): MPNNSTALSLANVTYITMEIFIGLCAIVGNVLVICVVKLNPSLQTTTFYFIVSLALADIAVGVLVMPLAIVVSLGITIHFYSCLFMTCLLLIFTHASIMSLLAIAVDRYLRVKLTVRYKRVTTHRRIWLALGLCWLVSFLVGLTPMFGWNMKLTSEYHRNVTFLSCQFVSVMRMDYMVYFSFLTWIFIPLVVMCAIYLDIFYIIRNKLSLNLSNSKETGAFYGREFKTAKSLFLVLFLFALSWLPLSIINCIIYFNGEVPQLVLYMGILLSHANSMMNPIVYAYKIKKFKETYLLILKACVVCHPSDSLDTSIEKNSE

Structure (SMILES): O=C(c1ccc2nc(-c3cccnc3)oc2c1)N1CCN(c2nc3ccccc3c(=O)[nH]2)CC1 [Compound 17]
- inhibition at 10 µM (ADENOSINE A3 REC.): 13%
- inhibition at 10 µM (PHOSPHODIESTERASE 4D2): 21%
- inhibition at 10 µM (CYCLO OXYGENASE 2): 20%
- Papp A→B (ABCB1 (MDR1, human P-gp)): 11.7 ×10⁻⁶ cm/s
- inhibition at 10 µM (5HT2B): 28%
- inhibition at 10 µM ([…]. M2): 27%
- inhibition at 10 µM (ESTROGEN REC. α): 0%
- inhibition at 10 µM (β2-ADRENOCEPTOR): 1%
- inhibition at 10 µM (CDK2): 3%
- inhibition at 10 µM (κ OPIOID REC.): 15%
- inhibition at 10 µM (ACETYLCHOLINESTERASE): 3%
- inhibition at 10 µM (DOPAMINE D2 REC. (short)): -10%
- inhibition at 10 µM ([…]. M1): 9%
- Papp at 18 h, 150 µM [1]: 4 ×10⁻⁶ cm/s
- inhibition at 10 µM (NORE[…].): 15%
- inhibition at 10 µM (GSK-3A): 8%
- inhibition at 10 µM (C[…]. CB1): 2%
- inhibition at 10 µM (HISTAMINE H2 REC.): 1%
- inhibition at 10 µM (A[…]. ENZ.): 16%
- inhibition at 10 µM (HISTAMINE H3 REC.): 14%
- inhibition at 10 µM (PPARγ): -4%
- inhibition at 10 µM (α1A-ADRENOCEPTOR): 13%
- inhibition at 10 µM (ANGIOTENSIN II REC. 1): -3%
- inhibition at 10 µM (SEROTONIN TRANSPORTER): -5%
- inhibition at 10 µM (PROSTAGLANDIN F REC.): -2%

Structure (SMILES): O=C(c1ccc2nc(-c3cnccc3C3CCCC3)oc2c1)N1CCN(c2nc3nc(Cl)ccc3o2)CC1 [Compound 23]
- inhibition at 10 µM (ADENOSINE A3 REC.): 21%
- inhibition at 10 µM (PHOSPHODIESTERASE 4D2): 20%
- inhibition at 10 µM (CYCLO OXYGENASE 2): 4%
- Papp A→B (ABCB1 (MDR1, human P-gp)): 8.9 ×10⁻⁶ cm/s
- inhibition at 10 µM (5HT2B): 3%
- inhibition at 10 µM ([…]. M2): 40%
- inhibition at 10 µM (ESTROGEN REC. α): 5%
- GLYCINE REC. percent activity or inhibition compared to the assay reference (GLYCINE REC.): 7%
- inhibition at 10 µM (β2-ADRENOCEPTOR): 4%
- inhibition at 10 µM (CDK2): 8%
- GABA-A percent activity or inhibition compared to the assay reference (GABA-A): 16%
- inhibition at 10 µM (κ OPIOID REC.): 18%
- PCP NMDA REC. percent activity or inhibition compared to the assay reference (PCP NMDA REC.): 7%
- inhibition at 10 µM (ACETYLCHOLINESTERASE): -1%
- inhibition at 10 µM (DOPAMINE D2 REC. (short)): -15%
- inhibition at 10 µM ([…]. M1): 10%
- Papp at 18 h, 150 µM [1]: 4 ×10⁻⁶ cm/s
- inhibition at 10 µM (NORE[…].): 15%
- inhibition at 10 µM (GSK-3A): 1%
- inhibition at 10 µM (C[…]. CB1): 2%
- inhibition at 10 µM (HISTAMINE H2 REC.): -1%
- inhibition at 10 µM (A[…]. ENZ.): -17%
- inhibition at 10 µM (HISTAMINE H3 REC.): 4%
- inhibition at 10 µM (PPARγ): 7%
- inhibition at 10 µM (α1A-ADRENOCEPTOR): 4%
- inhibition at 10 µM (ANGIOTENSIN II REC. 1): 11%
- GABA-A (BENZ[…]) percent activity or inhibition compared to the assay reference (GABA-A (BENZ[…])): 10%
- inhibition at 10 µM (SEROTONIN TRANSPORTER): 10%
- inhibition at 10 µM (PROSTAGLANDIN F REC.): -3%

Structure (SMILES): O=C(c1ccc2nc(-c3cnccc3C3(C4CCC4)CC3)oc2c1)N1CCN(c2nc3nc(Cl)ccc3o2)CC1 [Compound 27]
- P-gp (ABCB1 (MDR1, human P-gp); apparent permeability, apical-to-basolateral, LLC-PK1 cells with human P-gp): 7.1 ×10⁻⁶ cm/s
- GLYCINE REC. percent activity or inhibition compared to the assay reference (GLYCINE REC.): 3%
- GABA-A percent activity or inhibition compared to the assay reference (GABA-A): 69%
- PCP NMDA REC. percent activity or inhibition compared to the assay reference (PCP NMDA REC.): 8%
- PAMPA permeability ([1]; donor buffer pH 6.0, 18-hour incubation): 0.9 10^-6 cm/s
- GABA-A (BENZ[…]) percent activity or inhibition compared to the assay reference (GABA-A (BENZ[…])): 9%

Structure (SMILES): O=C(c1ccc2nc(-c3cnccc3C3CCCC3)oc2c1)N1CC2(CC(n3cnc(C4CC4)n3)C2)C1 [Compound 29]
- inhibition at 10 µM (ADENOSINE A3 REC.): 28%
- inhibition at 10 µM (PHOSPHODIESTERASE 4D2): 65%
- inhibition at 10 µM (CYCLO OXYGENASE 2): 23%
- Papp A→B (ABCB1 (MDR1, human P-gp)): 13.2 ×10⁻⁶ cm/s
- inhibition at 10 µM (5HT2B): 55%
- inhibition at 10 µM ([…]. M2): 33%
- inhibition at 10 µM (ESTROGEN REC. α): -3%
- GLYCINE REC. percent activity or inhibition compared to the assay reference (GLYCINE REC.): -2%
- inhibition at 10 µM (β2-ADRENOCEPTOR): 7%
- inhibition at 10 µM (CDK2): -6%
- GABA-A percent activity or inhibition compared to the assay reference (GABA-A): 61%
- inhibition at 10 µM (κ OPIOID REC.): 32%
- PCP NMDA REC. percent activity or inhibition compared to the assay reference (PCP NMDA REC.): -1%
- inhibition at 10 µM (ACETYLCHOLINESTERASE): 0%
- inhibition at 10 µM (DOPAMINE D2 REC. (short)): 4%
- inhibition at 10 µM ([…]. M1): 8%
- Papp at 18 h, 150 µM [1]: 5.9 ×10⁻⁶ cm/s
- cell permeability ([1]; in words, SI2.2, Fig. S1 (PAMPA vs LipE)): potent cell permeability
- inhibition at 10 µM (NORE[…].): 22%
- inhibition at 10 µM (GSK-3A): 16%
- inhibition at 10 µM (C[…]. CB1): 9%
- inhibition at 10 µM (HISTAMINE H2 REC.): 11%
- inhibition at 10 µM (A[…]. ENZ.): -13%
- inhibition at 10 µM (HISTAMINE H3 REC.): 12%
- inhibition at 10 µM (PPARγ): 16%
- inhibition at 10 µM (α1A-ADRENOCEPTOR): 50%
- inhibition at 10 µM (ANGIOTENSIN II REC. 1): 15%
- GABA-A (BENZ[…]) percent activity or inhibition compared to the assay reference (GABA-A (BENZ[…])): -1%
- inhibition at 10 µM (SEROTONIN TRANSPORTER): -11%
- inhibition at 10 µM (PROSTAGLANDIN F REC.): 21%
